Experimental data: patent publication US20020035061A1, “COMPOSITIONS AND METHODS FOR TREATING INFECTIONS USING CATIONIC PEPTIDES ALONE OR IN COMBINATION WITH ANTIBIOTICS” (priority 1996, published 2002)
Where two headings read alike, the source gives them in different places.

Key:
Type in all cases: cell-based
S. epidermidis = system: S. epidermidis
E. cloacae = system: E. cloacae
K. pneumoniae = system: K. pneumoniae
A. calcoaceticus = system: A. calcoaceticus
S. aureus = system: S. aureus
E. faecalis = system: E. faecalis
S. marcescens = system: S. marcescens
S. maltophilia = system: S. maltophilia
P. aeruginosa = system: P. aeruginosa
E. coli = system: E. coli

Sequence | MIC (S. epidermidis; S. epidermidis SE010) | MIC (E. cloacae; E. cloacae ECL007) | MIC (K. pneumoniae; K. pneumoniae KP001) | MIC (S. marcescens; S. marcescens SMS003) | MIC (S. maltophilia; S. maltophilia SMA002) | MIC (P. aeruginosa; P. aeruginosa PA004) | MIC (E. coli; E. coli ECO005) | MIC (A. calcoaceticus; A. calcoaceticus AC002) | MIC (S. aureus; S. aureus SA014) | MIC (E. faecalis; E. faecalis EFS008) | MIC (S. aureus; S. aureus SA093) | MIC (E. faecalis; E. faecalis EFS001) | also measured
ILKKNPNNPNRK [MBI 11B4ACN] | – | – | – | – | – | – | – | – | – | – | – | – | MIC (S. epidermidis; S. epidermidis strain SE010): 8 µg/mL; MIC (E. cloacae; E. cloacae strain ECL007): >128 µg/mL; MIC (K. pneumoniae; K. pneumoniae strain KP001): 32 µg/mL; MIC (A. calcoaceticus; A. calcoaceticus strain AC002): 4 µg/mL; MIC (S. aureus; S. aureus strain SA008): 1 µg/mL; MIC (E. faecalis; E. faecalis strain EFS008): 64 µg/mL; MIC (S. marcescens; S. marcescens strain SMS003): >128 µg/mL; MIC (S. maltophilia; S. maltophilia strain SMA002): 64 µg/mL; MIC (P. aeruginosa; P. aeruginosa strain PA004): >128 µg/mL; MIC (E. coli; E. coli strain ECO005): 32 µg/mL
ILKKNPNNPNRRK [MBI 11CNY1] | 128 µg/mL | >64 µg/mL | >64 µg/mL | >64 µg/mL | >64 µg/mL | >64 µg/mL | >64 µg/mL | – | – | – | – | – | MIC (A. calcoaceticus; A. calcoaceticus AC001): >64 µg/mL; MIC (S. aureus; S. aureus SA006): 16 µg/mL; MIC (E. faecalis; E. faecalis EFS004): >64 µg/mL
ILKKNPNNPRRK [MBI 11G6ACN] | – | – | – | – | – | – | – | – | – | – | – | – | MIC (S. epidermidis; S. epidermidis strain SE010): 32 µg/mL; MIC (E. cloacae; E. cloacae strain ECL007): >128 µg/mL; MIC (K. pneumoniae; K. pneumoniae strain KP001): >128 µg/mL; MIC (A. calcoaceticus; A. calcoaceticus strain AC002): 4 µg/mL; MIC (S. aureus; S. aureus strain SA014): 64 µg/mL; MIC (E. faecalis; E. faecalis strain EFS008): >128 µg/mL; MIC (S. marcescens; S. marcescens strain SMS003): >128 µg/mL; MIC (S. maltophilia; S. maltophilia strain SMA002): >128 µg/mL; MIC (P. aeruginosa; P. aeruginosa strain PA004): >128 µg/mL; MIC (E. coli; E. coli strain ECO005): 64 µg/mL
ILKKWPWWPWRRK [MBI 11ACN] | 4 µg/mL | >128 µg/mL | 16 µg/mL | >128 µg/mL | 64 µg/mL | >128 µg/mL | 16 µg/mL | 2 µg/mL | 8 µg/mL | 64 µg/mL | – | – | MIC (E. faecalis; E. faecalis EFS004): 8 µg/mL
ILRAPWWPWRRK [MBI 11H04CN] | 16 µg/mL | >128 µg/mL | 64 µg/mL | >128 µg/mL | >128 µg/mL | >128 µg/mL | 32 µg/mL | 8 µg/mL | 4 µg/mL | 8 µg/mL | 2 µg/mL | 2 µg/mL | –
ILRNPNNPNRRK [MBI 11B7ACN] | – | – | – | – | – | – | – | – | – | – | – | – | MIC (S. epidermidis; S. epidermidis strain SE010): 4 µg/mL; MIC (E. cloacae; E. cloacae strain ECL007): >128 µg/mL; MIC (K. pneumoniae; K. pneumoniae strain KP001, listed as MBI 11B7 ACN): 8 µg/mL; MIC (A. calcoaceticus; A. calcoaceticus strain AC002, listed as MBI 11B7 ACN): 2 µg/mL; MIC (S. aureus; S. aureus strain SA014): 2 µg/mL; MIC (S. aureus; S. aureus strain SA093): 1 µg/mL; MIC (E. faecalis; E. faecalis strain EFS001, listed as MBI 11B7 ACN): 1 µg/mL; MIC (E. faecalis; E. faecalis strain EFS008): 8 µg/mL; MIC (S. marcescens; S. marcescens strain SMS003): >128 µg/mL; MIC (S. maltophilia; S. maltophilia strain SMA002, listed as MBI 11B7 ACN): 32 µg/mL; MIC (P. aeruginosa; P. aeruginosa strain PA004, listed as MBI 11B7 ACN): 128 µg/mL; MIC (E. coli; E. coli strain ECO005, listed as MBI 11B7 ACN): 8 µg/mL
ILRRNPNNPNRRK [MBI 11B1CNW1] | – | – | – | – | – | – | – | – | – | – | – | – | MIC (S. epidermidis; S. epidermidis strain SE010): 8 µg/mL; MIC (E. cloacae; E. cloacae strain ECL007): 64 µg/mL; MIC (K. pneumoniae; K. pneumoniae strain KP001): 32 µg/mL; MIC (A. calcoaceticus; A. calcoaceticus strain AC002): 16 µg/mL; MIC (S. aureus; S. aureus strain SA014): 16 µg/mL; MIC (E. faecalis; E. faecalis strain EFS004): 8 µg/mL; MIC (S. marcescens; S. marcescens strain SMS003): >128 µg/mL; MIC (S. maltophilia; S. maltophilia strain SMA002): 32 µg/mL; MIC (P. aeruginosa; P. aeruginosa strain PA004): 64 µg/mL; MIC (E. coli; E. coli strain ECO005): 32 µg/mL
ILRRWVWWVWRRK [MBI 11F5CN] | 4 µg/mL | 128 µg/mL | 8 µg/mL | >128 µg/mL | 16 µg/mL | 32 µg/mL | 8 µg/mL | 4 µg/mL | 4 µg/mL | 8 µg/mL | 2 µg/mL | 2 µg/mL | –
ILRWAWWPWRRK [MBI 11H05CN] | 4 µg/mL | >128 µg/mL | 8 µg/mL | >128 µg/mL | 16 µg/mL | 128 µg/mL | 8 µg/mL | 4 µg/mL | 2 µg/mL | 8 µg/mL | 1 µg/mL | 2 µg/mL | –
ILRWPAWPWRRK [MBI 11H06CN] | 8 µg/mL | >128 µg/mL | 64 µg/mL | >128 µg/mL | 64 µg/mL | >128 µg/mL | 16 µg/mL | 8 µg/mL | 8 µg/mL | 16 µg/mL | 1 µg/mL | 2 µg/mL | –
ILRWPWAPWRRK [MBI 11H07CN] | 16 µg/mL | >128 µg/mL | 128 µg/mL | >128 µg/mL | 128 µg/mL | >128 µg/mL | 32 µg/mL | 8 µg/mL | 8 µg/mL | 16 µg/mL | 2 µg/mL | 4 µg/mL | –
ILRWPWRRWPWRRK [MBI 11B19CN] | 4 µg/mL | >128 µg/mL | 64 µg/mL | >128 µg/mL | 32 µg/mL | 128 µg/mL | 8 µg/mL | 4 µg/mL | 4 µg/mL | 32 µg/mL | 2 µg/mL | 2 µg/mL | –
ILRWPWWAWRRK [MBI 11H08CN] | 4 µg/mL | >128 µg/mL | 32 µg/mL | >128 µg/mL | 32 µg/mL | >128 µg/mL | 8 µg/mL | 4 µg/mL | 4 µg/mL | 8 µg/mL | 1 µg/mL | 2 µg/mL | –
ILRWPWWPARRK [MBI 11H09CN] | 16 µg/mL | >128 µg/mL | 64 µg/mL | >128 µg/mL | 64 µg/mL | >128 µg/mL | 32 µg/mL | 4 µg/mL | 8 µg/mL | 64 µg/mL | 2 µg/mL | 4 µg/mL | –
ILRWPWWPWARK [MBI 11H10CN] | 4 µg/mL | >128 µg/mL | 16 µg/mL | >128 µg/mL | 64 µg/mL | >128 µg/mL | 16 µg/mL | 4 µg/mL | 4 µg/mL | 8 µg/mL | 1 µg/mL | 2 µg/mL | –
ILRWPWWPWRAK [MBI 11H11CN] | 4 µg/mL | >128 µg/mL | 16 µg/mL | >128 µg/mL | 64 µg/mL | >128 µg/mL | 16 µg/mL | 4 µg/mL | 4 µg/mL | 8 µg/mL | 1 µg/mL | 2 µg/mL | –
